Measured values as given in patent US9113629B2, “4-amino-6-(4-substituted-phenyl)-picolinates and 6-amino-2-(4-substituted-phenyl)-pyrimidine-4-carboxylates and their use as herbicides” (DOW AGROSCIENCES LLC, priority 2013, dated 2015).
Like-named read-outs stand apart in the source and are kept apart here.

Legend:
[1] = system: Key Broadleaf Weed and Crop Species; test: Post-emergent Test II herbicidal activity (Table 5); type: in vivo; settings: post-emergence, 336 h, 14 days after application; for pest or weed control at 70 g/ha: application rate 70 g ai/ha; for pest or weed control at 140 g/ha: application rate 140 g ai/ha
How it was run: (§1)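 Test species were raised 7–21 d under greenhouse conditions until reaching the first or second true leaf, sprayed with formulated compound at 187 L/ha, and kept subirrigated to avoid wash-off. Fourteen days later, damage was rated visually on a 0–100% scale against untreated plants.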

[2] = system: Key Grass and Sedge Weeds as well as Grass Crops; test: Post-emergent Test II herbicidal activity (Table 6); type: in vivo; settings: post-emergence, 336 h; for pest or weed control at 70 g/ha: 70 g ai/ha; for pest or weed control at 140 g/ha: 140 g ai/ha
How it was run: as §1

[3] = ABUTH: velvetleaf (Abutilon theophrasti), read-out: Visual Growth Reduction (%) 14 Days After Application, ABUTH
[4] = AMARE: redroot pigweed (Amaranthus retroflexus), read-out: Visual Growth Reduction (%) 14 Days After Application, AMARE
[5] = BRSNN: oilseed-rape, canola (Brassica napus), read-out: Visual Growth Reduction (%) 14 Days After Application, BRSNN
[6] = CHEAL: lambsquarters (Chenopodium album), read-out: Visual Growth Reduction (%) 14 Days After Application, CHEAL
[7] = EPHHL: wild poinsettia (Euphorbia heterophylla), read-out: Visual Growth Reduction (%) 14 Days After Application, EPHHL
[8] = HELAN: sunflower (Helianthus annuus), read-out: Visual Growth Reduction (%) 14 Days After Application, HELAN
[9] = VIOTR: wild pansy (Viola tricolor), read-out: Visual Growth Reduction (%) 14 Days After Application, VIOTR
[10] = CYPES: yellow nutsedge (Cyperus esculentus), read-out: Visual Growth Reduction (%) 14 Days After Application, CYPES
[11] = DIGSA: crabgrass (Digitaria sanguinalis), read-out: Visual Growth Reduction (%) 14 Days After Application, DIGSA
[12] = ECHCG: barnyardgrass (Echinochloa crus-galli), read-out: Visual Growth Reduction (%) 14 Days After Application, ECHCG
[13] = ORYSA: rice (Oryza sativa), crop, read-out: Visual Growth Reduction (%) 14 Days After Application, ORYSA
[14] = SETFA: giant foxtail (Setaria faberi), read-out: Visual Growth Reduction (%) 14 Days After Application, SETFA
[15] = SORVU: grain sorghum (Sorghum vulgare), read-out: Visual Growth Reduction (%) 14 Days After Application, SORVU
[16] = TRZSS (wheat, Triticum aestivum), crop, read-out: Visual Growth Reduction (%) 14 Days After Application, TRZSS
[17] = ZEAMX: maize, corn (Zea mays), crop, read-out: Visual Growth Reduction (%) 14 Days After Application, ZEAMX

For `COC(=O)c1nc(-c2ccc(I)cc2)cc(N)c1Cl` [Compound 158], the pest or weed control at 70 g/ha [1, 3] was 95 to 100%, the pest or weed control at 140 g/ha [1, 3] was 95 to 100% and the pest or weed control at 70 g/ha [1, 4] was 95 to 100%. The pest or weed control at 140 g/ha [1, 4] was 95 to 100%, the pest or weed control at 70 g/ha [1, 5] was 60 to 74% and the pest or weed control at 140 g/ha [1, 5] was 75 to 84%. For the same compound, the pest or weed control at 70 g/ha [1, 6] was 95 to 100%, the pest or weed control at 140 g/ha [1, 6] was 95 to 100% and the pest or weed control at 70 g/ha [1, 7] was 95 to 100%. For the same compound, the pest or weed control at 140 g/ha [1, 7] was 95 to 100%, the pest or weed control at 70 g/ha [1, 8] was 75 to 84% and the pest or weed control at 140 g/ha [1, 8] was 75 to 84%. It also gave a pest or weed control at 70 g/ha [1, 9] of 0 to 29%, a pest or weed control at 140 g/ha [1, 9] of 0 to 29% and a pest or weed control at 70 g/ha [2, 10] of 45 to 59%. The pest or weed control at 140 g/ha [2, 10] was 45 to 59%, the pest or weed control at 70 g/ha [2, 11] was 60 to 74% and the pest or weed control at 140 g/ha [2, 11] was 60 to 74%. For the same compound, the pest or weed control at 70 g/ha [2, 12] was 60 to 74%, the pest or weed control at 140 g/ha [2, 12] was 75 to 84% and the pest or weed control at 70 g/ha [2, 13] was 0 to 29%. The pest or weed control at 140 g/ha [2, 13] was 0 to 29%, the pest or weed control at 70 g/ha [2, 14] was 0 to 29% and the pest or weed control at 140 g/ha [2, 14] was 0 to 29%. The pest or weed control at 70 g/ha [2, 15] was 85 to 94%, the pest or weed control at 140 g/ha [2, 15] was 85 to 94% and the pest or weed control at 70 g/ha [2, 16] was 0 to 29%. The pest or weed control at 140 g/ha [2, 16] was 45 to 59%, the pest or weed control at 70 g/ha [2, 17] was 0 to 29% and the pest or weed control at 140 g/ha [2, 17] was 0 to 29%.
